According to US20100311656A1 (priority 2003, published 2010):

Tests used:
[1] = cited from earlier work
[2] = mouse, in vivo
SARS-CoV (Urbani) = assay type: in vivo, mice
[3] = subcutaneously injected; cited from earlier work
[4] = 0.2 mg/kg or 2 mg/kg s.c.; no toxicity controls included; cited from earlier work

Row | Substance | Dose found to be safe for humans [1] [mg/kg body weight/day] | Tolerability of treatments [2] | Effect on virus lung titers (SARS-CoV (Urbani); mouse, in vivo) | Reduction of virus lung titers (SARS-CoV (Urbani); mouse, in vivo) | Reduction of virus titers (SARS-CoV (Urbani); mouse, in vivo) | Virus titer reductions (range over regimens) (SARS-CoV (Urbani); mouse, in vivo) | Plasma half-life [3] | Tolerability of the doses used (previously shown) [4] | Mean Body Weight Change [2] [g] | Inhibition of lung virus titers (SARS-CoV (Urbani); 50 μg/mouse i.n., positive control, P<0.01) [log 10 units] | Virus Titer (Log10 CCID50/g) (SARS-CoV (Urbani); lung, day 3 after infection, 50 μg/mouse i.n., -24 h, +12 h, mean ± SD, P < 0.01 vs buffer)
1 | Ac-SDAAVDTSSEITTKDLKEKKEVVEEAEN-OH [thymosin alpha-1] | ≤ 16 | very well tolerated | significantly reduced virus lung titers | about one | approximately 0.5 log10 unit | 0.5-1.0 log10 units | about two | well tolerated |  |  | 
2 | Poly-ICLC |  |  |  |  |  |  |  |  | 0.0 | ~3 | 2.9 ± 0.1
